Data taken from patent US20120308570A1, “METHODS FOR TREATING DISEASES” (priority 2009, published 2012).

Experiments:
[1] = molecular target: T1, SSB-2 SPRY domain (SSB-2ΔSB, residues 12-224) (Mus musculus, UniProt O88838); test: ITC of SSB-2 SPRY domain with iNOS N-terminal peptides; type: binding; details: 25° C., 100 mM TrisHCl, 150 mM NaCl, pH 8.0
T1 construct: GST (N, cleaved yes); made in house; host or cells: E. coli BL21 (DE3)
T1 sequence (O88838 12-224): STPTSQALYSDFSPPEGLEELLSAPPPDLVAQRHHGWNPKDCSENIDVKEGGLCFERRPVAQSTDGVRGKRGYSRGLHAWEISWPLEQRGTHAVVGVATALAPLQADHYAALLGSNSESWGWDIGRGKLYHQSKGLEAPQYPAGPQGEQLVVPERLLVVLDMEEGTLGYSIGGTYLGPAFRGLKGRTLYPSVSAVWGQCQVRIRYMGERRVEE
Source text: The construct used for expression of recombinant murine SSB-2 protein included almost all the native sequence of mouse SSB-2 except for the SOCS box and the first eleven residues (residues 12-224, SWISS-PROT accession number 088838). This sequence, together with six residues at the N-terminus (GSSARQ (SEQ ID NO:38), numbered 6-11) and seven at the C-terminus (TRRIHRD (SEQ ID NO:39), numbered 225-231), both originating from the vector, gave a construct of 226 residues in total. This was expressed as a GST fusion protein in BL21 (DE3) E. coli. For ITC and co-precipitation experiments, bacteria were grown in L-broth. For NMR analysis, bacteria were grown in M9 minimal media supplemented with ^15N NH4Cl (99%, 1 g L−1). The GST fusion protein was purified from clarified cell lysates using Glutathione Sepharose 4B (Amersham Biosciences) then cleaved in situ using thrombin (Roche). […]
To determine whether the SSB-2-SPRY domain could interact with the sequence identified by the database searches, a series of peptides including the wild-type and various mutant sequences corresponding to amino acids 19-31 of murine iNOS, were synthesized and binding affinities for the SSB-2-SPRY domain (residues 12-224; SSB-2ΔSB) measured using isothermal titration calorimetry (ITC) (Table 2, FIG. 3).

iNOS/SSB-2 interaction = molecular target: T2, iNOS/SSB-2 interaction (Mus musculus, UniProt O88838); test: Peptide competition assay (anti-Flag immunoprecipitation, anti-iNOS Western blot); type: binding
T2 construct: cDNA clones covering the entire coding region of murine SSB-1 to −4 were isolated; expressed in transfected cells; host or cells: 293T cells (Flag-SSB-2); C57BL/6 BMDM lysate (iNOS)
T2 sequence (O88838 1-264): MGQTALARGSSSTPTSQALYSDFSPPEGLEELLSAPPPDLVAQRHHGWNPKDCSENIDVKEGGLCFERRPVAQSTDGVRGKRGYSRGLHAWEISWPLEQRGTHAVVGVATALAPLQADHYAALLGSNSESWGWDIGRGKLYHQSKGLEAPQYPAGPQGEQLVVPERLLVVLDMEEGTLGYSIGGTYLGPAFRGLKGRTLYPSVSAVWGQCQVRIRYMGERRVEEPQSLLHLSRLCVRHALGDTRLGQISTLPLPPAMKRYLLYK
Description: 293T cells were transfected with vector alone or a construct expressing FLAG-tagged SSB-2 and lysed as described above. iNOS peptide (SEQ ID NO:3) was added in increasing concentrations (0.001, 0.01, 0.1, 1.0 and 10 μM) to iNOS-expressing lysate generated from C57BL/6 BMDM stimulated with LPS/IFNγ. 293T lysates were then added to the macrophage/iNOS peptide lysates and incubated for 1 h at 4° C. Anti-Flag antibody coupled to Sepharose beads (M2, Sigma) was added to the lysate mix and incubated for 3 h at 4° C. Complexes were then separated by SDS-PAGE and analysed by Western blot with anti-iNOS antibodies.
Given that there are a number of disease states where elevated or prolonged iNOS expression might be beneficial, the present inventors were interested in whether the iNOS/SSB-2 interaction could be disrupted. As a simple proof-of-concept experiment, free iNOS peptide was used to competitively disrupt the interaction. 293T cells were transiently transfected with cDNA expressing Flag-tagged SSB-2, lysed and mixed with iNOS-expressing macrophage lysates which contained increasing amounts of free iNOS peptide.

## Ac-KEEKDINNNVKKT-NH2 [I, Ac-KEEKDINNNVKKT-NH2]
[1]
  Kd: 13 nM
iNOS/SSB-2 interaction; 100 nM iNOS peptide
  inhibition of SSB-2 interaction with iNOS: modestly inhibited
iNOS/SSB-2 interaction; 1000 nM peptide
  inhibition of SSB-2 interaction with iNOS: completely inhibited
